Measured values: patent US9661847B2, “Antimicrobial preservative compositions for personal care products” (Galaxy Surfactants Ltd., priority 2011, dated 2017)
Like-named read-outs stand apart in the source and are kept apart here. Blank lines part the entries; values can stand above or below the compound they belong to.

Assays:
[1] = tested on: Gram positive, Gram negative bacteria, yeast and mould; test: Minimum inhibitory concentration, whole panel of microbes; format: cell-based; settings: for Antimicrobial activity, in words: up to 1.0% concentration
[2] = Reduction of surface tension of water; format: physicochemical
[3] = 0.1% aqueous solution at 25° C., from 72 dynes/cm; cited from earlier work
[4] = tested on: Bacillus subtilis ATCC 9372; test: Minimum inhibitory concentration; format: cell-based; settings: B. subtilis
[5] = tested on: Aspergillus niger ATCC 16404; test: Minimum inhibitory concentration; format: cell-based; settings: for Concentration of individual component at the MIC of the blend: A. niger
[6] = tested on: Candida albicans ATCC 10231; test: Minimum inhibitory concentration; format: cell-based; settings: for Concentration of individual component at the MIC of the blend: C. albicans
[7] = tested on: Escherichia coli ATCC 10142; test: Minimum inhibitory concentration; format: cell-based; settings: E. coli
[8] = tested on: Malassezia furfur MTCC 1374; test: Minimum inhibitory concentration; format: cell-based; settings: M. furfur
[9] = tested on: Staphylococcus aureus ATCC 6538S; test: Minimum inhibitory concentration; format: cell-based
[10] = tested on: Pseudomonas aeruginosa Immuno type IV; test: Minimum inhibitory concentration; format: cell-based; settings: P. aeruginosa
[11] = tested on: Propionibacterium acnes MTCC 1951; test: Minimum inhibitory concentration; format: cell-based; settings: P. acnes

Surface tension of water reduced to ([2]; 0.05% level): 38 dynes/cm
Surface tension of water ([2]; 0.05% solution): 38.5 dyne/cm
Surface tension of water reduced to ([2]; 0.1% concentration): 30 dynes/cm
Surface tension of water ([2]; 0.1% solution): 30.5 dyne/cm
Structure (SMILES): CCCCCCCC(=O)NCCO [Octanoyl MEA amide, N-(2-hydroxylethyl)caprylic acid amide]
Antimicrobial activity, in words [1]: did not exhibit any antibacterial activity

Structure (SMILES): CCCCC(CC)COCC(O)CO (stereo not shown) [2-ethyl hexyl glyceryl ether, 3-(2-ethylhexyl)oxy 1,2-propanediol]
Surface tension of water reduced to [3]: 32 dynes/cm

Structure (SMILES): C=CCCCCCCCCC(=O)NCCO [Undecylenoyl MEA amide, N-undecylenoyl monoethanol amide]
Concentration of individual component at the MIC of the blend ([4]; within Preservative Blend No 1): 200 ppm
Concentration of individual component at the MIC of the blend ([4]; within Preservative Blend No 2): 200 ppm
Concentration of individual component at the MIC of the blend ([5]; within Preservative Blend No 1): 300 ppm
Concentration of individual component at the MIC of the blend ([5]; within Preservative Blend No 2): 200 ppm
Concentration of individual component at the MIC of the blend ([6]; within Preservative Blend No 1): 300 ppm
Concentration of individual component at the MIC of the blend ([6]; within Preservative Blend No 2): 200 ppm
Concentration of individual component at the MIC of the blend ([7]; within Preservative Blend No 1): 200 ppm
Concentration of individual component at the MIC of the blend ([7]; within Preservative Blend No 2): 300 ppm
Concentration of individual component at the MIC of the blend ([8]; within Preservative Blend No 1): 400 ppm
Concentration of individual component at the MIC of the blend ([8]; within Preservative Blend No 2): 400 ppm
Concentration needed for antimicrobial activity of the ingredient by itself (range over microbes) ([1]; ingredient alone, octanoyl glycine tested at neutral pH): > 10000 ppm
Antimicrobial activity, in words [1]: does not exhibit any antimicrobial activity
Concentration of individual component at the MIC of the blend ([9]; within Preservative Blend No 1): 200 ppm
Concentration of individual component at the MIC of the blend ([9]; within Preservative Blend No 2): 300 ppm
Concentration of individual component at the MIC of the blend ([10]; within Preservative Blend No 1): 200 ppm
Concentration of individual component at the MIC of the blend ([10]; within Preservative Blend No 2): 300 ppm
Concentration of individual component at the MIC of the blend ([11]; within Preservative Blend No 1): 300 ppm
Concentration of individual component at the MIC of the blend ([11]; within Preservative Blend No 2): 200 ppm

Structure (SMILES): OCCOc1ccccc1 [Phenoxy ethanol, 2-Phenoxy ethanol]
Concentration of individual component at the MIC of the blend ([4]; within Preservative Blend No 2): 1600 ppm
Concentration of phenoxy ethanol in combination enough to kill the organism ([5]; in combination with [A] and [B] of Preservative Blend No 1, Aspergillus): around 0.25%
Concentration of phenoxy ethanol in combination enough to kill the organism ([6]; in combination with [A] and [B] of Preservative Blend No 1, Candida): around 0.25%
Concentration of individual component at the MIC of the blend ([8]; within Preservative Blend No 2): 3200 ppm
